Laboratory results reported in patent US10878939B2, “Methods and compositions for personalized pain management” (Children's Hospital Medical Center, priority 2014, dated 2020).
Several values for one entry are separate records, joined by “and”; a condition that tells them apart may be missing. Equal values may be shown once.

Assays:
[1] = test system: children undergoing tonsillectomy; experiment: Respiratory depression and prolonged PACU stay due to RD by ABCB1 genotype (Example 7)
Description: Children 6-15 years undergoing elective outpatient tonsillectomy were eligible for the study and recruited on the day of surgery. […] Clinical criteria for OSA designation included sleep disordered breathing with a history of snoring and either sleep pauses lasting more than 10 seconds or daytime drowsiness. Children were excluded from the study if they or their parents were non-English speaking.
All participants received standard perioperative care. Anesthesia was induced using sevoflurane followed by a propofol (2 mg/kg) bolus to facilitate endotracheal intubation. Anesthesia was maintained with sevoflurane without the use of neuromuscular blockade. […] All children receive prophylactic ondansetron (0.1 mg/kg) and dexamethasone (0.1 mg/kg) intraoperatively.
Duration of PACU stay (time to achieve PACU discharge readiness) was defined as the duration in PACU before achieving the following discharge criteria. […] This is discharge readiness time is different from actual PACU discharge time as delays due to social reasons (e.g. waiting for car rides) were not included.
Metrics for analgesic effectiveness and opioid-related adverse effects were recorded for each participant. For the metrics for opioid-related adverse effects, this study focused on two clinically and economically important outcomes: clinical RD and prolonged PACU stay (>90 minutes) secondary to respiratory depression assessed consistently by the research coordinator.
Blood was collected from each participant in the operating room under anesthesia and the DNA was isolated the same day and stored at −20 degree Celsius. Batched genotyping was performed after clinical data was entered on all study participants. The TaqMan allelic discrimination system assays and Genotyper Softerware Version 1.0.1 (Life Technologies, Applied Biosystems, Forest City, Calif.) were used to analyse and report the following ABCB1 polymorphisms: rs1045642, rs2032582, rs1128503, rs2229109, and rs9282564.
Prior to analysis, data qualities were examined. For the ABCB1 variants, allelic and genotype frequencies were assessed in white and black patients separately, and Hardy Weinberg equilibrium (HWE) was tested. To analyze binary outcomes (RD, prolonged PACU secondary to RD and analgesic intervention need), logistic regression was performed. […] Thus, maximum FLACC scores were analyzed using a zero-inflated negative binomial model to appropriately capture the distribution of this variable. […] To select the best fitting model, log likelihood, Akaike and Bayesian Information criterion were compared, and residuals were examined. […] To assess the single SNP association with the outcomes, additive models were used, in which the genotypes were recoded and tested as continuous variables. For the four bi-allelic SNPs, genotypes were recoded to 0, 1 and 2 according to the number of minor alleles. For rs2032582, GG genotype was recoded as 0; GA and GT genotypes were combined and recoded as 1, and TT and TA genotypes as 2. Statistical modeling was conducted with white and black patients separately and combined. When races were combined, the effects of race and race*SNP interaction were tested.

[2] = test system: children undergoing tonsillectomy; experiment: Opioid-related adverse effects and PACU stay by sex, age and morphine dose (Example 6)
Description: This was a prospective clinical observational study using a standard perioperative anesthetic and surgical practices and standard postoperative nursing care within the tonsillectomy population.
Clinical criteria for OSA designation included sleep disordered breathing with a history of snoring and either sleep pauses lasting more than 10 seconds or daytime drowsiness. Children were excluded from the study if they or their parents were non-English speaking.
As part of T/TA standard practice at this institution, all children receive prophylactic ondansetron (0.1 mg/kg) and dexamethasone (0.1 mg/kg) intraoperatively. Anesthesia is induced via sevoflurane inhaled induction followed by a propofol (2 mg/kg) bolus to facilitate endotracheal intubation. Anesthesia was maintained with sevoflurane without the use of neuromuscular blockade.
Adverse effects were measured by two sets of binary outcomes: 1) opioid-related side effects including RD, nausea/vomiting (PONV) and pruritus; 2) prolonged PACU stay secondary to respiratory depression or nausea/vomiting.
Duration of PACU stay (time to achieve PACU discharge readiness) was defined as the duration in PACU before achieving the following discharge criteria. […] This discharge readiness time is different from actual PACU discharge time as delays due to social reasons (e.g. waiting for car ride, etc.) were not included.
Prior to analyses, data quality was examined. […] To assess the sex effect, outcome measurements were first compared between boys and girls with and without OSA stratification. Continuous variables were compared using t-test or Wilcoxon rank-sum test and categorical variables were compared using Fisher's exact test.
Effects of age, weight, BMI z scores, and OSA were also tested as covariates for all the outcomes. When significant effects were detected (p<0.05), covariates were included in the final models. Binary outcomes were analyzed using logistic regression. Maximum NRS was analyzed using linear regression. Maximum FLACC score was analyzed by using a zero-inflated negative binomial model because of the inflated frequency of score 0. The total number of analgesic interventions followed a Poisson distribution and was analyzed using a generalized linear model.

[3] = F, total morphine 0.2-<0.3 mg/kg
[4] = M, total morphine 0.2-<0.3 mg/kg
[5] = girls 8-13 years, total morphine <0.3 mg/kg
[6] = girls 8-13 years, total morphine >=0.3 mg/kg
[7] = girls <8 years, total morphine <0.3 mg/kg
[8] = girls <8 years, total morphine >=0.3 mg/kg
[9] = girls >13 years, total morphine <0.3 mg/kg
[10] = girls >13 years, total morphine >=0.3 mg/kg

## CN1CC[C@]23c4c5ccc(O)c4O[C@H]2[C@@H](O)C=C[C@H]3[C@H]1C5 [morphine]
[1]; 263 patients
  patients with RD: 19%
  patients with prolonged PACU stay due to RD: 11%
[1]; Blacks, ABCB1 rs1045642 CC, N=27
  Prolonged PACU due to RD %: 7%
[1]; Blacks, ABCB1 rs1045642 TC, N=14
  Prolonged PACU due to RD %: 21%
[1]; Blacks, ABCB1 rs1045642 TT, N=3
  Prolonged PACU due to RD %: 33%
[1]; Blacks, ABCB1 rs1128503 CC, N=24
  Prolonged PACU due to RD %: 8%
[1]; Blacks, ABCB1 rs1128503 TC, N=18
  Prolonged PACU due to RD %: 17%
[1]; Blacks, ABCB1 rs1128503 TT, N=2
  Prolonged PACU due to RD %: 50%
[1]; Blacks, ABCB1 rs2032582 GA, N=1
  Prolonged PACU due to RD %: 0%
[1]; Blacks, ABCB1 rs2032582 GG, N=35
  Prolonged PACU due to RD %: 11%
[1]; Blacks, ABCB1 rs2032582 GT, N=8
  Prolonged PACU due to RD %: 25%
[1]; Blacks, ABCB1 rs2229109 CA, N=1
  Prolonged PACU due to RD %: 0%
[1]; Blacks, ABCB1 rs2229109 CC, N=43
  Prolonged PACU due to RD %: 14%
[1]; Blacks, ABCB1 rs9282564 AA, N=41
  Prolonged PACU due to RD %: 10%
[1]; Blacks, ABCB1 rs9282564 GA, N=3
  Prolonged PACU due to RD %: 67%
[1]; Whites, ABCB1 rs1045642 CC, N=49
  Prolonged PACU due to RD %: 4%
[1]; Whites, ABCB1 rs1045642 TC, N=100
  Prolonged PACU due to RD %: 15%
[1]; Whites, ABCB1 rs1045642 TT, N=70
  Prolonged PACU due to RD %: 10%
[1]; Whites, ABCB1 rs1128503 CC, N=70
  Prolonged PACU due to RD %: 9%
[1]; Whites, ABCB1 rs1128503 TC, N=102
  Prolonged PACU due to RD %: 13%
[1]; Whites, ABCB1 rs1128503 TT, N=47
  Prolonged PACU due to RD %: 11%
[1]; Whites, ABCB1 rs2032582 GA, N=7
  Prolonged PACU due to RD %: 0%
[1]; Whites, ABCB1 rs2032582 GG, N=65
  Prolonged PACU due to RD %: 9%
[1]; Whites, ABCB1 rs2032582 GT, N=100
  Prolonged PACU due to RD %: 14%
[1]; Whites, ABCB1 rs2032582 TA, N=1
  Prolonged PACU due to RD %: 0%
[1]; Whites, ABCB1 rs2032582 TT, N=46
  Prolonged PACU due to RD %: 9%
[1]; Whites, ABCB1 rs2229109 CA, N=14
  Prolonged PACU due to RD %: 14%
[1]; Whites, ABCB1 rs2229109 CC, N=205
  Prolonged PACU due to RD %: 11%
[1]; Whites, ABCB1 rs9282564 AA, N=171
  Prolonged PACU due to RD %: 8%
[1]; Whites, ABCB1 rs9282564 GA, N=46
  Prolonged PACU due to RD %: 20%
[1]; Whites, ABCB1 rs9282564 GG, N=2
  Prolonged PACU due to RD %: 100%
[2]; F, All
  PONV, number of cases: 22
  PONV, proportion: (10%)
  Prolonged stay in PACU due to PONV, proportion: (5%)
  Prolonged stay in PACU due to RD, number of cases: 11
  Prolonged stay in PACU due to RD, proportion: (5%)
  Pruritus, number of cases: 88
  Pruritus, proportion: (41%)
  RD, proportion: (9%)
[2]; F, OSA No
  PONV, number of cases: 11
  PONV, proportion: (9%)
  Prolonged stay in PACU due to PONV, proportion: (2%)
  Prolonged stay in PACU due to RD, number of cases: 5
  Prolonged stay in PACU due to RD, proportion: (4%)
  Pruritus, number of cases: 41
  Pruritus, proportion: (33%)
  RD, number of cases: 9
  RD, proportion: (7%)
[2]; F, OSA Yes
  PONV, number of cases: 11
  PONV, proportion: (12%)
  Prolonged stay in PACU due to PONV, proportion: (8%)
  Prolonged stay in PACU due to RD, number of cases: 6
  Prolonged stay in PACU due to RD, proportion: (6%)
  Pruritus, number of cases: 47
  Pruritus, proportion: (50%)
  RD, proportion: (12%)
[2]; [3]
  PONV, number of cases (%): 8 (16)
  Prolonged stay in PACU due to PONV, number of cases (%): 3 (6)
  Prolonged stay in PACU due to RD, number of cases (%): 1 (2)
  Pruritus, number of cases (%): 42 (84)
[2]; F, total morphine <0.2 mg/kg
  PONV, number of cases (%): 4 (10)
  Prolonged stay in PACU due to PONV, number of cases (%): 2 (5)
  Prolonged stay in PACU due to RD, number of cases (%): 2 (5)
  Pruritus, number of cases (%): 29 (73)
[2]; F, total morphine ≥0.3 mg/kg
  PONV, number of cases (%): 10 (43)
  Prolonged stay in PACU due to PONV, number of cases (%): 5 (22)
  Prolonged stay in PACU due to RD, number of cases (%): 8 (35)
  Pruritus, number of cases (%): 17 (74)
  RD, number of cases (%): 12 (52)
[2]; M, All
  PONV, number of cases: 14
  PONV, proportion: (6%)
  Prolonged stay in PACU due to PONV, proportion: (4%)
  Prolonged stay in PACU due to RD, number of cases: 13
  Prolonged stay in PACU due to RD, proportion: (6%)
  Pruritus, number of cases: 79
  Pruritus, proportion: (36%)
  RD, proportion: (8%)
[2]; M, OSA No
  PONV, number of cases: 7
  PONV, proportion: (6%)
  Prolonged stay in PACU due to PONV, proportion: (5%)
  Prolonged stay in PACU due to RD, number of cases: 8
  Prolonged stay in PACU due to RD, proportion: (6%)
  Pruritus, number of cases: 51
  Pruritus, proportion: (41%)
  RD, number of cases: 12
  RD, proportion: (10%)
[2]; M, OSA Yes
  PONV, number of cases: 7
  PONV, proportion: (7%)
  Prolonged stay in PACU due to PONV, proportion: (2%)
  Prolonged stay in PACU due to RD, number of cases: 5
  Prolonged stay in PACU due to RD, proportion: (5%)
  Pruritus, number of cases: 28
  Pruritus, proportion: (30%)
  RD, number of cases: 6
  RD, proportion: (6%)
[2]; [4]
  PONV, number of cases (%): 7 (15)
  Prolonged stay in PACU due to PONV, number of cases (%): 3 (6)
  Prolonged stay in PACU due to RD, number of cases (%): 3 (6)
  Pruritus, number of cases (%): 35 (76)
  RD, number of cases (%): 6 (13)
[2]; M, total morphine <0.2 mg/kg
  PONV, number of cases (%): 6 (18)
  Prolonged stay in PACU due to PONV, number of cases (%): 4 (12)
  Prolonged stay in PACU due to RD, number of cases (%): 5 (15)
  Pruritus, number of cases (%): 24
  RD, number of cases (%): 4 (12)
[2]; M, total morphine ≥0.3 mg/kg
  PONV, number of cases (%): 1 (4)
  Prolonged stay in PACU due to PONV, number of cases (%): 1 (4)
  Prolonged stay in PACU due to RD, number of cases (%): 5 (20)
  Pruritus, number of cases (%): 20 (80)
  RD, number of cases (%): 8 (32)
[2]; [5]
  PONV, number of cases (%): 2 (5)
  Prolonged stay in PACU due to PONV, number of cases (%): 2 (5)
  Prolonged stay in PACU due to RD, number of cases (%): 1 (2)
  Respiratory depression (RD), number of cases (%): 4 (9)
[2]; [6]
  PONV, number of cases (%): 1 (11)
  Prolonged stay in PACU due to PONV, number of cases (%): 1 (11)
  Prolonged stay in PACU due to RD, number of cases (%): 3 (33)
  Respiratory depression (RD), number of cases (%): 5 (56)
[2]; [7]
  PONV, number of cases (%): 7 (19)
  Prolonged stay in PACU due to PONV, number of cases (%): 2 (5)
  Prolonged stay in PACU due to RD, number of cases (%): 2 (5)
  Respiratory depression (RD), number of cases (%): 3 (8)
[2]; [8]
  PONV, number of cases (%): 6 (60)
  Prolonged stay in PACU due to PONV, number of cases (%): 4 (40)
  Prolonged stay in PACU due to RD, number of cases (%): 4 (40)
  Respiratory depression (RD), number of cases (%): 5 (50)
[2]; [9]
  PONV, number of cases (%): 1 (9)
  Prolonged stay in PACU due to PONV, number of cases (%): 1 (9)
  Prolonged stay in PACU due to RD, number of cases (%): 0 (0)
  Respiratory depression (RD), number of cases (%): 1 (9)
[2]; [10]
  PONV, number of cases (%): 0 (0)
  Prolonged stay in PACU due to PONV, number of cases (%): 0 (0)
  Prolonged stay in PACU due to RD, number of cases (%): 1 (25)
  Respiratory depression (RD), number of cases (%): 2 (50)
[2]; girls, morphine exceeded 0.3 mg/kg, multivariate models
  probability of all opioid adverse effects except for pruritus: increased significantly
[2]; white boys, <0.3 mg/kg total morphine
  duration of stay in PACU: 88.3 ± 3.6 min
[2]; white boys, ≥0.3 mg/kg total morphine
  duration of stay in PACU: 99.7 ± 6.4 min
[2]; white girls, <0.3 mg/kg total morphine
  duration of stay in PACU: 82.2 ± 3.3 min
[2]; white girls, ≥0.3 mg/kg total morphine, 0.3 mg/kg
  duration of stay in PACU: 111 ± 6.6 min and 111.1 ± 6.6 min
